Here are results for one substance from patent US11478533B2, “Semaglutide for use in medicine” (Novo Nordisk A/S, priority 2020, dated 2022).

Experiment [1] concerns subjects with NAFLD and increased liver stiffness. Put plainly: Clinical Trial B: liver steatosis by MRI-PDFF. Format: in vivo, human. The following applies: 0.4 mg OD s.c. Here is the method: A randomised, double-blind, placebo-controlled, parallel group, multi-centre phase 1 trial was carried out to investigate the effect of 0.4 mg semaglutide once-daily (OD) in 67 subjects with NAFLD and increased liver stiffness. Subjects received once daily either (i) semaglutide of 0.05 mg for 4 weeks, 0.1 mg for 4 weeks, 0.2 mg for 4 weeks, 0.3 mg for 4 weeks, and then 0.4 mg for the remaining trial period, or (ii) placebo in injection volumes corresponding to (i). Administration was performed via subcutaneous injection using (a) an aqueous solution comprising 1.0 mg/ml semaglutide, 1.42 mg/ml disodium hydrogen phosphate dihydrate, 14.0 mg/ml propylene glycol, 5.50 mg/ml phenol at pH 7.4, or (b) a placebo solution comprising the same ingredients as (a) except no semaglutide. Inclusion criteria for subjects in the trial comprised (i) liver steatosis of at least 10% measured by magnetic resonance imaging proton density fat fraction (MRI-PDFF) at screening, (ii) liver stiffness between 2.50 and 4.63 kPa (both inclusive) measured by magnetic resonance elastography at screening, (iii) BMI between 25.0 and 40.0 kg/m^2 (both inclusive) at screening, (iv) liver stiffness >6.50 kPa measured via Fibroscan® (manufactured by Echosens, Paris, France) at screening, and (v) for subjects with type 2 diabetes mellitus only, diagnosis of type 2 diabetes mellitus was at least 180 days prior to screening and with HbA1c of no more than 9.5% at screening. Screening was carried out prior to baseline in order to make assessments used to determine subject eligibility. Exclusion criteria for subjects in the trial comprised (i) documented causes of chronic liver disease other than NAFLD including NASH and (ii) no substantial alcohol consumption, defined in the trial as no more than 20 g ethanol per day for women or no more than 30 g ethanol per day for men. Baseline characteristics for all randomised subjects in the trial were shown in Table B. MRI-PDFF is a determination of the percentage of fat in the entire liver and the method is described in e.g. Caussy et al. Hepatology. 2018 August; 68(2):763-772.

In another experiment the test system is subjects with NASH. Put plainly: Clinical Trial A: enhanced liver fibrosis (ELF) score. Format: in vivo, human. The conditions noted are these: week 72; for Change in enhanced liver fibrosis (ELF) at end of trial compared to baseline relative to placebo, ETD: all randomised subjects, estimated treatment difference vs placebo (ANCOVA). From the text: In some embodiments the method of the invention reduces enhanced liver fibrosis (ELF). In some embodiments the term “enhanced liver fibrosis” (also referred to as ELF) as used herein refers to a score derived as a log-linear combination based on blood sample levels of hyaluronic acid (HA), amino-terminal propeptide of type III collagen (P3NP), and tissue inhibitor of metalloproteinase 1 (TIMP1) according to Formula (I): ELF=−7.412+0.681×ln(cHA)+0.775×ln(cP3NP)+0.494×ln(cTIMP1) (I) where cHA is the serum concentration of HA in ng/ml, cP3NP is the serum concentration of P3NP in ng/ml, and cTIMP1 is the serum concentration of TIMP1 in ng/ml.
A 72-week, randomised, double-blind, placebo-controlled, six-armed, parallel group, multicentre, multi-national phase 2 trial comparing once daily (OD) administration of semaglutide in three different doses (0.1 mg, 0.2 mg and 0.4 mg) with placebo in subjects with NASH was carried out. A total of 319 subjects received trial product, 302 subjects completed the trial, and 277 subjects had liver biopsy at trial week 72. Subjects received once daily (a) semaglutide of (i) 0.05 mg for 4 weeks and 0.1 mg for the remaining trial period, (ii) 0.05 mg for 4 weeks, 0.1 mg for 4 weeks, and 0.2 mg for the remaining trial period, (iii) 0.05 mg for 4 weeks, 0.1 mg for 4 weeks, 0.2 mg for 4 weeks, 0.3 mg for 4 weeks, and 0.4 mg for the remaining trial period, or (b) placebo in injection volumes corresponding to (i), (ii) or (iii). Administration was performed via subcutaneous injection using (a) an aqueous solution comprising 1.0 mg/ml semaglutide, 1.42 mg/ml disodium hydrogen phosphate dihydrate, 14.0 mg/ml propylene glycol, 5.50 mg/ml phenol at pH 7.4, or (b) a placebo solution comprising the same ingredients as (a) except no semaglutide. Inclusion criteria for subjects in the trial comprised (i) histologic evidence of NASH based on evaluation of a liver biopsy obtained up to 21 weeks before screening, (ii) a histological NAS >4 with a score of 1 or more in each sub-component of the score, and (iii) liver fibrosis stage 1, 2 or 3 according to the NASH-CRN. Screening was carried out prior to baseline in order to make assessments used to determine subject eligibility. Exclusion criteria for subjects in the trial comprised (i) documented causes of chronic liver disease other than NASH and (ii) no substantial alcohol consumption, defined in the trial as no more than 20 g ethanol per day for women or no more than 30 g ethanol per day for men. Baseline characteristics for all randomised subjects in the trial were as shown in Table A. The term “baseline” as used herein refers to the beginning of the trial prior to administration of semaglutide or placebo. […] The fibrosis stage was determined according to the Kleiner fibrosis classification.

For the substance “N-epsilon26-[2-(2-{2-[2-(2-{2-[(S)-4-Carboxy-4-(17-carboxyheptadecanoyl-amino)butyrylamino]ethoxy}ethoxy)acetylamino]ethoxy}ethoxy)acetyl] [Aib8, Arg34]GLP-1-(7-37) [Semaglutide]”, the “Reduction of liver steatosis compared to placebo” value in experiment [1] (24 weeks of trial) is listed as 30%; in experiment [1] (48 and 72 weeks of trial) it was “about 50%”. The “Subjects with at least 30% reduction in liver steatosis” value is “about 65%” in experiment [1] (24 weeks of trial); 74-77% in experiment [1] (48 and 72 weeks of trial). Moreover, the “Change in liver steatosis by MRI-PDFF compared to baseline, Estimated mean ratio to baseline” value in experiment [1] (trial week 24) is 0.64; in experiment [1] (trial week 48), 0.42; in experiment [1] (trial week 72), 0.42. Moreover, the “Proportion of subjects with 30% or greater reduction in liver steatosis by MRI-PDFF compared to baseline” value in experiment [1] (trial week 24) is listed as 64.7 (p = 0.0006) %; in experiment [1] (trial week 48) it was 76.5 (p = 0.0001) %; in experiment [1] (trial week 72), 73.5 (p = 0.0006) %. Also, the “Change in enhanced liver fibrosis (ELF) at end of trial compared to baseline relative to placebo, ETD” value was −0.35 [−0.57; with subjects with NASH (0.1 mg OD s.c.), −0.40 [−0.62; in the experiment on subjects with NASH (0.2 mg OD s.c.) and −0.57 [−0.79; in the experiment with subjects with NASH (0.4 mg OD s.c.). Also, in the experiment on subjects with NASH (all tested semaglutide dosages), the “Reduction of ELF compared to placebo (in words)” value is listed as “reduced ELF significantly more compared to placebo”.
